Laboratory results from patent publication US10435405B2, “Pyrazolopyridine compounds and uses thereof” (Incyte Corporation, priority 2016, dated 2019).

Biological target: HPK1 (Homo sapiens (Human), UniProt Q92918)
Test: HPK1 Kinase Binding Assay
In short: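 This is a LanthaScreen tracer-binding format: a tracer 222/Eu-anti-GST antibody mix (18 nM and 4 nM solution) is added to active HPK1 (4 nM solution) with 3-fold, 11-point compound dilutions. Incubation is 1 h at 25 °C in HEPES pH 7.5 buffer before reading, and Ki is determined.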

Sequence of HPK1 (Q92918 1-346): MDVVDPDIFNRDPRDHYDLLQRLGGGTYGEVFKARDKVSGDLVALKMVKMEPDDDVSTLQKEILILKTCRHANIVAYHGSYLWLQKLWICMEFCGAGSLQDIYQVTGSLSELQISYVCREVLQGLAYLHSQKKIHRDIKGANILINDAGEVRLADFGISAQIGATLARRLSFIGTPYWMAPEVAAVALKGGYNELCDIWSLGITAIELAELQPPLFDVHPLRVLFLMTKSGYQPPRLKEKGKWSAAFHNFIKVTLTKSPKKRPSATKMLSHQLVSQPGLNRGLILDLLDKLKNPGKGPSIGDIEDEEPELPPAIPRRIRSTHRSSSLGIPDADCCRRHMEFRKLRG

Structure (SMILES) | Ki
Cc1cccc(F)c1-c1cc2c(NC(=O)c3ccc(N4CCN(C)CC4)cc3NCC(C)O)n[nH]c2cn1 (stereo not shown) [Example 158, N-(5-(2-Fluoro-6-methylphenyl)-1H-pyrazolo[3,4-c]pyridin-3-yl)-2-(2-hydroxypropylamino)-4-(4-methylpiperazin-1-yl)benzamide] | ≤ 100 nM
COc1cccc(Cl)c1-c1cc2c(-c3ccc(N4CCN(C)CC4)cc3)n[nH]c2cn1 [Example 52, 5-(2-Chloro-6-methoxyphenyl)-3-(4-(4-methylpiperazin-1-yl)phenyl)-1H-pyrazolo[3,4-c]pyridine] | ≤ 100 nM
CCN1CCN(c2cccc(C(=O)Nc3n[nH]c4cnc(-c5c(F)cccc5OC)cc34)c2)CC1 [Example 20, 3-(4-Ethylpiperazin-1-yl)-N-(5-(2-fluoro-6-methoxyphenyl)-1H-pyrazolo[3,4-c]pyridin-3-yl)benzamide] | ≤ 100 nM
CC(C)NCc1cc(F)c(-c2cc3c(NC(=O)c4ccc(F)c(N5CCN(C)CC5)c4)n[nH]c3cn2)c(F)c1 [Example 151, N-(5-(2,6-Difluoro-4-((isopropylamino)methyl)phenyl)-1H-pyrazolo[3,4-c]pyridin-3-yl)-4-fluoro-3-(4-methylpiperazin-1-yl)benzamide] | ≤ 100 nM
COc1cccc(F)c1-c1cc2c(NC(=O)c3cccc(N4CCNCC4)c3)n[nH]c2cn1 [Example 23, N-(5-(2-fluoro-6-methoxyphenyl)-1H-pyrazolo[3,4-c]pyridin-3-yl)-3-(piperazin-1-yl)benzamide] | ≤ 100 nM
COc1cccc(F)c1-c1cc2c(NC(=O)c3cccc(N4CCN(CC(F)(F)F)C(=O)C4)c3)n[nH]c2cn1 [Example 21, N-(5-(2-Fluoro-6-methoxyphenyl)-1H-pyrazolo[3,4-c]pyridin-3-yl)-3-(3-oxo-4-(2,2,2-trifluoroethyl)piperazin-1-yl)benzamide] | ≤ 100 nM
Cn1cc(-c2n[nH]c3cnc(-c4c(F)cc(C5CCCN5)cc4C(F)(F)F)cc23)cn1 (single isomer, unassigned) [Example 226, 5-(2-Fluoro-4-(pyrrolidin-2-yl)-6-(trifluoromethyl)phenyl)-3-(1-methyl-1H-pyrazol-4-yl)-1H-pyrazolo[3,4-c]pyridine] | ≤ 100 nM
CNC(C)c1cc(C)c(-c2cc3c(-c4cnn(C5CC5)c4)n[nH]c3cn2)c(F)c1 (single isomer, unassigned) [Example 228, 1-(4-(3-(1-Cyclopropyl-1H-pyrazol-4-yl)-1H-pyrazolo[3,4-c]pyridin-5-yl)-3-fluoro-5-methylphenyl)-N-methylethanamine] | ≤ 100 nM
COc1cccc(F)c1-c1cc2c(N3CCN(c4ccc(Br)cc4)C(=O)C3)n[nH]c2cn1 [Example 37, 1-(4-Bromophenyl)-4-(5-(2-fluoro-6-methoxyphenyl)-1H-pyrazolo[3,4-c]pyridin-3-yl)piperazin-2-one] | ≤ 100 nM
Cc1cc(NC(=O)CC#N)cc(F)c1-c1cc2c(-c3cnn(C)c3)n[nH]c2cn1 [Example 85, 2-Cyano-N-(3-fluoro-5-methyl-4-(3-(1-methyl-1H-pyrazol-4-yl)-1H-pyrazolo[3,4-c]pyridin-5-yl)phenyl)acetamide] | ≤ 100 nM
CN1CCN(c2ccc(-c3n[nH]c4cnc(-c5cc(F)cc(C6(CN)CC6)c5)cc34)cc2)CC1 [Example 42, 1-[1-(3-Fluoro-5-{3-[4-(4-methylpiperazin-1-yl)phenyl]-1H-pyrazolo[3,4-c]pyridin-5-yl}phenyl)cyclopropyl]methanamine] | ≤ 100 nM
COc1cccc(F)c1-c1cc2c(NC(=O)c3cccc(N4CCNC(=O)C4)c3)n[nH]c2cn1 [Example 17, N-(5-(2-Fluoro-6-methoxyphenyl)-1H-pyrazolo[3,4-c]pyridin-3-yl)-3-(3-oxopiperazin-1-yl)benzamide] | ≤ 100 nM
CN(C)C(=O)Oc1cc(F)c(-c2cc3c(-c4cnn(C)c4)n[nH]c3cn2)c(F)c1 [Example 109, 3,5-Difluoro-4-(3-(1-methyl-1H-pyrazol-4-yl)-1H-pyrazolo[3,4-c]pyridin-5-yl)phenyl dimethylcarbamate] | ≤ 100 nM
CNC1CCc2c1cc(C)c(-c1cc3c(-c4cnn(C)c4)n[nH]c3cn1)c2F (stereo not shown) [Example 220, 4-Fluoro-N,6-dimethyl-5-(3-(1-methyl-1H-pyrazol-4-yl)-1H-pyrazolo[3,4-c]pyridin-5-yl)-2,3-dihydro-1H-inden-1-amine] | ≤ 100 nM

Other lines, results leading:

Ki | Structure (SMILES)
≤ 100 nM | Cc1cc(CN2CCC2)cc(F)c1-c1cc2c(-c3cnn(C)c3)n[nH]c2cn1 [Example 182, 5-(4-(Azetidin-1-ylmethyl)-2-fluoro-6-methylphenyl)-3-(1-methyl-1H-pyrazol-4-yl)-1H-pyrazolo[3,4-c]pyridine]
≤ 100 nM | CC(C)NCc1cc(F)c(-c2cc3c(NC(=O)c4ccc(N5CCN(C)CC5)cc4)n[nH]c3cn2)c(F)c1 [Example 140, N-(5-(2,6-Difluoro-4-((isopropylamino)methyl)phenyl)-1H-pyrazolo[3,4-c]pyridin-3-yl)-4-(4-methylpiperazin-1-yl)benzamide]
≤ 100 nM | COc1cccc(F)c1-c1cc2c(-c3cnc(C)s3)n[nH]c2cn1 [Example 36, 5-(5-(2-Fluoro-6-methoxyphenyl)-1H-pyrazolo[3,4-c]pyridin-3-yl)-2-methylthiazole]
≤ 100 nM | CNCc1cc(C)c(-c2cc3c(-c4cccc(N5CCOCC5)n4)n[nH]c3cn2)c(F)c1 [Example 117, 1-(3-Fluoro-5-methyl-4-(3-(6-morpholinopyridin-2-yl)-1H-pyrazolo[3,4-c]pyridin-5-yl)phenyl)-N-methylmethanamine]
≤ 100 nM | CNCc1cc(C)c(-c2cc3c(-c4cnn(C5CCOCC5)c4)n[nH]c3cn2)c(F)c1 [Example 136, 1-(3-Fluoro-5-methyl-4-(3-(1-(tetrahydro-2H-pyran-4-yl)-1H-pyrazol-4-yl)-1H-pyrazolo[3,4-c]pyridin-5-yl)phenyl)-N-methylmethanamine]
≤ 100 nM | CNCc1cc(C)c(-c2cc3c(-c4cnn(C5CC5)c4)n[nH]c3cn2)c(F)c1 [Example 134, 1-(4-(3-(1-Cyclopropyl-1H-pyrazol-4-yl)-1H-pyrazolo[3,4-c]pyridin-5-yl)-3-fluoro-5-methylphenyl)-N-methylmethanamine]
≤ 100 nM | CNC1CCc2cc(F)c(-c3cc4c(-c5ccc(N6CCN(C)CC6)cc5)n[nH]c4cn3)c(F)c2C1 (stereo not shown) [Example 199, 6,8-Difluoro-N-methyl-7-(3-(4-(4-methylpiperazin-1-yl)phenyl)-1H-pyrazolo[3,4-c]pyridin-5-yl)-1,2,3,4-tetrahydronaphthalen-2-amine]
≤ 100 nM | CNCc1cc(F)c(-c2cc3c(-c4ccc(OC)cc4)n[nH]c3cn2)c(F)c1 [Example 165, 1-(3,5-Difluoro-4-(3-(4-methoxyphenyl)-1H-pyrazolo[3,4-c]pyridin-5-yl)phenyl)-N-methylmethanamine]
≤ 100 nM | CNCc1cc(F)c(-c2cc3c(-c4cnn(C)c4)n[nH]c3cn2)c(C(F)F)c1 [Example 235, 1-(3-(Difluoromethyl)-5-fluoro-4-(3-(1-methyl-1H-pyrazol-4-yl)-1H-pyrazolo[3,4-c]pyridin-5-yl)phenyl)-N-methylmethanamine]
≤ 100 nM | Cn1cc(-c2n[nH]c3cnc(-c4c(F)cc(OCC5CCN5)cc4F)cc23)cn1 (stereo not shown) [Example 106, 5-(4-(Azetidin-2-ylmethoxy)-2,6-difluorophenyl)-3-(1-methyl-1H-pyrazol-4-yl)-1H-pyrazolo[3,4-c]pyridine]
≤ 100 nM | CN1CCN(c2ccc(-c3n[nH]c4cnc(-c5c(F)cccc5F)cc34)cc2)CC1 [Example 44, 5-(2,6-Difluorophenyl)-3-(4-(4-methylpiperazin-1-yl)phenyl)-1H-pyrazolo[3,4-c]pyridine]
≤ 100 nM | COc1cccc(F)c1-c1cc2c(NC(=O)c3ccc(F)cc3)n[nH]c2cn1 [Example 5, 4-Fluoro-N-(5-(2-fluoro-6-methoxyphenyl)-1H-pyrazolo[3,4-c]pyridin-3-yl)benzamide]
≤ 100 nM | CNC(=O)c1ccc(-c2n[nH]c3cnc(-c4c(F)cccc4OC)cc23)cc1F [Example 100, 2-Fluoro-4-(5-(2-fluoro-6-methoxyphenyl)-1H-pyrazolo[3,4-c]pyridin-3-yl)-N-methylbenzamide]
≤ 100 nM | CNC1(c2cc(F)c(-c3cc4c(-c5cnn(C)c5)n[nH]c4cn3)c(F)c2)CC1 [Example 137, 1-(3,5-Difluoro-4-(3-(1-methyl-1H-pyrazol-4-yl)-1H-pyrazolo[3,4-c]pyridin-5-yl)phenyl)-N-methylcyclopropanamine]
≤ 100 nM | CNCc1ccc(F)c(-c2cc3c(-c4cnn(C)c4)n[nH]c3cn2)c1C [Example 92, 1-(4-Fluoro-2-methyl-3-(3-(1-methyl-1H-pyrazol-4-yl)-1H-pyrazolo[3,4-c]pyridin-5-yl)phenyl)-N-methylmethanamine]
≤ 100 nM | COC1CN(C(=O)c2cc(F)c(-c3cc4c(-c5cnn(C)c5)n[nH]c4cn3)c(F)c2)C1 [Example 58, (3,5-Difluoro-4-(3-(1-methyl-1H-pyrazol-4-yl)-1H-pyrazolo[3,4-c]pyridin-5-yl)phenyl)(3-methoxyazetidin-1-yl)methanone]
≤ 100 nM | Cn1cc(-c2n[nH]c3cnc(-c4c(F)cc(NC(=O)Cc5cccnc5)cc4F)cc23)cn1 [Example 67, N-(3,5-Difluoro-4-(3-(1-methyl-1H-pyrazol-4-yl)-1H-pyrazolo[3,4-c]pyridin-5-yl)phenyl)-2-(pyridin-3-yl)acetamide]
≤ 100 nM | COc1cccc(F)c1-c1cc2c(-c3cc(C)no3)n[nH]c2cn1 [Example 35, 5-(5-(2-Fluoro-6-methoxyphenyl)-1H-pyrazolo[3,4-c]pyridin-3-yl)-3-methylisoxazole]
≤ 100 nM | Cn1cc(-c2n[nH]c3cnc(-c4c(F)ccc(NC(=O)Cc5ccccc5)c4F)cc23)cn1 [Example 60, N-(2,4-Difluoro-3-(3-(1-methyl-1H-pyrazol-4-yl)-1H-pyrazolo[3,4-c]pyridin-5-yl)phenyl)-2-phenylacetamide]
≤ 100 nM | COc1c(-c2cc3c(-c4ccc(N5CCN(C)CC5)cc4)n[nH]c3cn2)c(F)cc2c1C(N)CC2 (stereo not shown) [Example 206, 5-Fluoro-7-methoxy-6-(3-(4-(4-methylpiperazin-1-yl)phenyl)-1H-pyrazolo[3,4-c]pyridin-5-yl)-2,3-dihydro-1H-inden-1-amine]
